Data as given in patent US5330897A, “Sialic acid binding lectin of protozoan origin” (South Alabama Medical Science Foundation, priority 1992, dated 1994).

B1: Fetuin: sialoconjugate (sialoglycoprotein) (protein, UniProt P12763 19-359, looked up)
Alpha-2-HS-glycoprotein: IPLDPVAGYKEPACDDPDTEQAALAAVDYINKHLPRGYKHTLNQIDSVKVWPRRPTGEVYDIEIDTLETTCHVLDPTPLANCSVRQQTQHAVEGDCDIHVLKQDGQFSVLFTKCDSSPDSAEDVRKLCPDCPLLAPLNDSRVVHAVEVALATFNAESNGSYLQLVEISRAQFVPLPVSVSVEFAVAATDCIAKEVVDPTKCNLLAEKQYGFCKGSVIQKALGGEDVRVTCTLFQTQPVIPQPQPDGAEAEAPSAVPDAAGPTPSAAGPPVASVVVGPSVVAVPLPLHRAHYDLRHTFSGVASVESSSGEAFHVGKTPIVGQPSIPGGPVRLCPGRIRYFKI

Experiments:
[1] = test system: sialidase from T. mobilensis; test: Inhibition of sialidase activity associated with the affinity column; format: biochemical, Tritrichomonas mobilensis; conditions: 1 mM inhibitor
Method: Free sialic acid release from bovine submaxillary mucin was used to determine enzymatic activity. Sample to be tested (total volume 50 μl) was mixed with 250 μl of 0.1M acetate, pH 5.0 and 200 μl of 1% mucin in water. After incubation at 37° for 30 minutes, 0.5 ml of 5% phosphotungstic acid in 2.5N HCl was added with vortexing. Assay tubes were centrifuged at 2000×g for 10 minutes, and 250 μl of the supernatant was assayed for sialic acid by the thiobarbituric acid method (Warren, J. Biol. Chem. 234:1971-1975 (1959)). Activity was calculated as μmoles of sialic acid released during a 30 min incubation at 37°. Controls were identical samples precipitated by phosphotungstic acid before the 37° incubation.
The sialidase(s) from T. mobilensis can be separated from HA activity by carefully controlling elution conditions from the affinity column. […] Affinity purified lectin is not inhibited at inhibitor concentrations up to 100 mM, while the sialidase activity associated with the column is inhibited by 50% at 1 mM inhibitor. […] Alternatively, they may simply reflect the affinity of the sialidase for mucin.

[2] = test system: T. mobilensis hemolysis of erythrocytes; test: Whole organism hemolysis assay, inhibition; format: cell-based, Tritrichomonas mobilensis
From the text: Tritrichomonas mobilensis, an enteric parasite of squirrel monkeys, adheres readily to isolated monkey intestinal epithelial cells and agglutinates human erythrocytes in vitro. These activities are mediated by a sialic acid binding lectin. Hemagglutination by either parasites or purified lectin is inhibited by N-acetylneuraminic acid and anti-lectin monoclonal antibody (MAB), but not by 2,3-dehydro-2-desoxy-N-acetylneuraminic acid, a neuraminidase inhibitor. T. mobilensis hemolyzes erythrocytes in a modification of a previously published whole organism hemolysis assay. Hemolysis is inhibited by N-acetylneuraminic acid, 2,3-dehydro-2-desoxy-N-acetylneuraminic acid, anti-lectin MAB, T. mobilensis lectin and other sialic acid binding lectins, fetuin, and colominic acid, but not by asialofetuin, or leupeptin. Desialated erythrocytes are neither agglutinated nor hemolyzed.

T. mobilensis lectin = test: Inhibition of T. mobilensis lectin-mediated hemagglutination; format: biochemical, Tritrichomonas mobilensis; conditions: for Minimal Inhibitory Conc.: 2 units of hemagglutinin; for Inhibition of HA activity of purified lectin (in words): concentrations up to 100 mM where stated
[3] = test system: live T. mobilensis flagellates; test: Inhibition of hemagglutination by live T. mobilensis; conditions: sugars up to 100 mM; normal erythrocytes, room temperature
[4] = test system: T. mobilensis attachment to CHO cells; test: Carbohydrate inhibition of T. mobilensis adherence to CHO cells; format: cell-based, Tritrichomonas mobilensis; conditions: concentration-dependent; other carbohydrates up to 100 mM
Method: The kinetics of T. mobilensis-CHO trypsin-dispersed cell interactions were studied in a cell suspension system. Equal volumes (100 μl) of 10^5 CHO cells and 10^6 (unless otherwise specified) trichomonads resuspended in serum-free M199 were mixed in microfuge tubes and incubated at room temperature (unless otherwise stated) with gentle agitation. Periodically the percentage of CHO cells with adherent flagellates was determined microscopically in wet-mount preparations, 100 CHO cells being examined in each preparation.

[5] = test system: T. augusta cell-free lysate hemagglutinin; test: Inhibition of HA activity of T. augusta cell-free lysate; format: biochemical, Tritrichomonas augusta
[6] = test system: T. mobilensis cell-free lysate hemagglutinin; test: Inhibition of HA activity of T. mobilensis cell-free lysate; format: biochemical, Tritrichomonas mobilensis
[7] = test system: T. foetus cell-free lysate hemagglutinin; test: Inhibition of HA activity of T. foetus cell-free lysate; format: biochemical, Tritrichomonas foetus
live cells of T. foetus = test: Inhibition of HA by live cells of T. foetus; format: cell-based, Tritrichomonas foetus

Molecule	Inhibition of hemolysis [2]	Minimal Inhibitory Conc. (T. mobilensis lectin; carbohydrates)	Inhibition of HA activity of purified lectin (in words) (T. mobilensis lectin)	Inhibition of hemagglutination by live T. mobilensis [3]	Inhibition of attachment of parasites to CHO cells [4]	also measured
CC(=O)N[C@H]1[C@H]([C@H](O)[C@H](O)CO)OC(C(=O)O)=C[C@@H]1O [2,3-dehydro-2-deoxy-N-acetylneuraminic acid]	inhibited	> 100 mM	not inhibited			Inhibition of sialidase activity [1]: 50%
CC(=O)N[C@H]1[C@H]([C@H](O)[C@H](O)CO)OC(O)(C(=O)O)C[C@@H]1O (stereo partly shown) [N-acetylneuraminic acid]	inhibited	2.0 mM	inhibited	inhibited	inhibited	Conc. required to inhibit 2 HA units, T. augusta ([5]; carbohydrates, […]): 10 µg/mL; Conc. required to inhibit 2 HA units, T. mobilensis ([6]; carbohydrates, […]): 5 µg/mL; Conc. required to inhibit 2 HA units, T. foetus ([7]; carbohydrates, […]): > 200 µg/mL
O=C(CO)N[C@H]1[C@H]([C@H](O)[C@H](O)CO)OC(O)(C(=O)O)C[C@@H]1O (stereo partly shown) [N-glycolylneuraminic acid]		8.3 mM		inhibited		
N-acetylneuraminic acid-lactose [sialyllactose]				inhibited	inhibited	
B1	inhibited					Minimal Inhibitory Conc. (T. mobilensis lectin; glycoproteins or proteins): 8.33 µg/mL; Conc. required to Inhibit 2 HA Units (live cells of T. foetus): 60 µg/mL; Conc. required to inhibit 2 HA units, T. augusta ([5]; sialoglycoproteins): 100 µg/mL; Conc. required to inhibit 2 HA units, T. mobilensis ([6]; sialoglycoproteins): 100 µg/mL; Conc. required to inhibit 2 HA units, T. foetus ([7]; sialoglycoproteins): 60 µg/mL
